Reference: patent US10844051B2, “Substituted oxazoles for the treatment of cancer” (THE ROYAL INSTITUTION FOR THE ADCANCEMENT OF …, priority 2015, dated 2020)

Columns and labels:
[1] = biological target: T1, human GATA2 (Homo sapiens, UniProt P23769); test: GATA2-dependent reporter assay in IHH cells; format: cell-based; details: GATA-Luc reporter, 48 h
T1 construct: expressed in transfected cells; host or cells: IHH
T1 sequence (P23769 1-480): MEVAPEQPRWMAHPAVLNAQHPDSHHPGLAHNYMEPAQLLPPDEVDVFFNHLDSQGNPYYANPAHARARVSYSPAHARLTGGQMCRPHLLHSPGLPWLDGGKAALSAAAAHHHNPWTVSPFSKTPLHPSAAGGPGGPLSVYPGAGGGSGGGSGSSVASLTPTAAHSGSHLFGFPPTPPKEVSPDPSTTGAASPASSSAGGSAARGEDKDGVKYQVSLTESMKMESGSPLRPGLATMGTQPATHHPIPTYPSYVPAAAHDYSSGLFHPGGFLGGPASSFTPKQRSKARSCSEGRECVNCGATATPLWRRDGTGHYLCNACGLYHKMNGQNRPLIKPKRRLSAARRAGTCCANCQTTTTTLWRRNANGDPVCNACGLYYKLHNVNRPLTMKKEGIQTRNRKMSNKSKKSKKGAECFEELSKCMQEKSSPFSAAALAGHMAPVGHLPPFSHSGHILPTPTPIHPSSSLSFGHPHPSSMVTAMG
Method: K7174 is a known GATA2 inhibitor. The IHH cells were transiently transfected with empty vector (for the NT) or human GATA2-expressing plasmid as well as pRL-TK (internal control) and GATA-Luc reporter plasmids. Cells were exposed to DMSO vehicle or compounds for 48 h. Experiments were in triplicate.

[2] = test system: hSTING and/or mSTING; test: hSTING- or mSTING-dependent ISRE-luc reporter assay in 293T cells; format: cell-based; details: 24 hours
Method: ISRE-luc (reporter), pRL-TK (internal control) and hSTING- or mSTING-expressing plasmids were transiently transfected into 293T cells. Cells were exposed to DMSO vehicle control or compounds for 24 hours. Experiments were done in triplicate.

SMILES	GATA2 inhibition in GATA2-dependent reporter assay [1]	activation of hSTING and/or mSTING in ISRE-luc reporter assay [2]	also measured
c1ccc(-c2nc(CCc3c[nH]c4ccccc34)oc2-c2ccccc2)cc1 [Compound 631]	GATA2 inhibitors	–	–
O=C(c1ccco1)N1CCN(Cc2nc(-c3ccccc3)c(-c3ccccc3)[nH]2)CC1 [Compound 1125]	–	activate hSTING and/or mSTING	–
O=C(c1ccco1)N1CCN(Cc2nc(-c3ccccc3)c(-c3ccccc3)o2)CC1 [Compound 1126]	–	activate hSTING and/or mSTING	–
OC1(c2cccc(C(F)(F)F)c2)CCN(Cc2nc(-c3ccccc3)c(-c3ccccc3)o2)CC1 [Compound 1127]	–	activate hSTING and/or mSTING	–
OC1(c2cccc(C(F)(F)F)c2)CCN(Cc2nc(-c3ccccc3)c(-c3ccccc3)[nH]2)CC1 [Compound 1129]	–	activate hSTING and/or mSTING	–
Fc1cccc(-c2nc(CN3CCC(c4c[nH]c5ccccc45)CC3)[nH]c2-c2cccc(F)c2)c1 [Compound 1137]	–	activate hSTING and/or mSTING	–
Oc1ccc(N2CCN(Cc3nc(-c4cccc(F)c4)c(-c4cccc(F)c4)[nH]3)CC2)cc1 [Compound 1139]	–	activate hSTING and/or mSTING	–
CNC(=O)c1ccc(C2CCN(Cc3nc(-c4cccc(F)c4)c(-c4cccc(F)c4)[nH]3)CC2)cc1 [Compound 1140]	–	activate hSTING and/or mSTING	–
COc1cccc(N2CCN(Cc3nc(-c4cccc(F)c4)c(-c4cccc(F)c4)[nH]3)CC2)c1 [Compound 1141]	–	activate hSTING and/or mSTING	–
COc1cccc(N2CCN(Cc3nc(-c4ccccc4)c(-c4ccccc4)o3)CC2)c1 [Compound 1142]	–	activate hSTING and/or mSTING	–
COc1cccc(N2CCN(Cc3nc(-c4ccccc4)c(-c4ccccc4)[nH]3)CC2)c1 [Compound 1143]	–	activate hSTING and/or mSTING	–
Fc1cccc(-c2nc(CN3CCC(c4cccc(C(F)(F)F)c4)CC3)[nH]c2-c2cccc(F)c2)c1 [Compound 1173]	–	–	activation of hSTING and/or mSTING in ISRE-luc reporter assay ([2]; 10 μM): activate hSTING and/or mSTING

Further lines, with some results ahead:

GATA2 inhibition in GATA2-dependent reporter assay [1]	SMILES	activation of hSTING and/or mSTING in ISRE-luc reporter assay [2]	also measured
GATA2 inhibitors	c1ccc(-c2nc(CCCc3c[nH]c4ccccc34)oc2-c2ccccc2)cc1 [Compound 632]	–	–
GATA2 inhibitors	COc1cccc(/C=C/c2nc(-c3ccccc3)c(-c3ccccc3)o2)c1 [Compound 684]	–	–
GATA2 inhibitors	C(=C\c1cccs1)/c1nc(-c2ccccc2)c(-c2ccccc2)o1 [Compound 685]	–	–
GATA2 inhibitors	COc1cccc(-c2nc(Cc3c[nH]c4ccccc34)oc2-c2cccc(O)c2)c1 [Compound 719]	–	–
GATA2 inhibitors	Fc1cccc(-c2[nH]c(Cc3c[nH]c4ccccc34)nc2-c2ccco2)c1 [Compound 839]	–	–
GATA2 inhibitors	COc1ccc(CC/C(=C/C(=O)N2CCC(O)(c3ccccc3)CC2)c2ccccc2)cc1 [Compound 858]	–	–
GATA2 inhibitors	O=C(/C=C(/CCc1ccccc1)c1ccccc1)N1CCC(O)(c2ccccc2)CC1 [Compound 859]	–	–
GATA2 inhibitors	O=C(/C=C(/CCc1cccc(F)c1)c1ccccc1)N1CCC(O)(c2ccccc2)CC1 [Compound 860]	–	–
GATA2 inhibitors	O=C1Nc2ccccc2C1CCc1nc(-c2cccc(F)c2)c(-c2cccc(F)c2)o1 (stereo not shown) [Compound 866]	–	–
GATA2 inhibitors	O=C(/C=C(/CCc1cccc(C(F)(F)F)c1)c1ccccc1)N1CCC(O)(c2ccccc2)CC1 [Compound 868]	–	–
GATA2 inhibitors	O=C(/C=C(/CCc1ccccc1)c1cccc(C(F)(F)F)c1)N1CCC(O)(c2ccccc2)CC1 [Compound 869]	–	–
GATA2 inhibitors	Cc1ccc(/C(=C\C(=O)N2CCC(O)(c3ccccc3)CC2)CCc2ccccc2)cc1 [Compound 870]	–	–
GATA2 inhibitors	COc1ccc(/C(=C\C(=O)N2CCC(O)(c3ccccc3)CC2)CCc2ccccc2)cc1 [Compound 871]	–	–
